The test has as its system HIV-1 single-round infectious reporter virus. Briefly: Single-round infectious HIV-1 luciferase reporter virus infection of HeLa CD4 CCR5 cells. Format: cell-based. As to conditions: Human immunodeficiency virus 1, HeLa-CD4/CCR5, 72 h, read-out: EC50 Group from Table 1. On the procedure:
• Virus production—Human embryonic Kidney cell line, 293, propagated in Dulbecco's Modified Eagle Medium (Life Technologies, Gaithersburg, Md.) containing 10% fetal Bovine serum (FBS, Sigma, St. Louis, Mo.). • Virus infection—Human epithelial cell line, HeLa, expressing the HIV-1 receptors CD4 and CCR5 was propagated in Dulbecco's Modified Eagle Medium (Life Technologies, Gaithersburg, Md.) containing 10% fetal Bovine serum (FBS, Sigma, St. Louis, Mo.) and supplemented with 0.2 mg/mL Geneticin (Life Technologies, Gaithersburg, Md.) and 0.4 mg/mL Zeocin (Invitrogen, Carlsbad, Calif.). Virus-Single-round infectious reporter virus was produced by co-transfecting human embryonic Kidney 293 cells with an HIV-1 envelope DNA expression vector and a proviral cDNA containing an envelope deletion mutation and the luciferase reporter gene inserted in place of HIV-1 nef sequences (Chen et al, Ref 41). Transfections were performed using lipofectAMINE PLUS reagent as described by the manufacturer (Life Technologies, Gaithersburg, Md.). Experiment • 1. Compound was added to HeLa CD4 CCR5 cells plated in 96 well plates at a cell density of 1×10^4 cells per well in 100 μl Dulbecco's Modified Eagle Medium containing 10% fetal Bovine serum at a concentration of <20 μM. • 2. 100 μl of single-round infectious reporter virus in Dulbecco's Modified Eagle Medium was then added to the plated cells and compound at an approximate multiplicity of infection (MOI) of 0.01, resulting in a final volume of 200 μl per well and a final compound concentration of <10 μM. • 3. Samples were harvested 72 h after infection. • 4. Viral infection was monitored by measuring luciferase expression from viral DNA in the infected cells using a luciferase reporter gene assay kit (Roche Molecular Biochemicals, Indianapolis, Ind.). Infected cell supernatants were removed and 50 μl of Dulbecco's Modified Eagle Medium (without phenol red) and 50 μl of luciferase assay reagent reconstituted as described by the manufacturer (Roche Molecular Biochemicals, Indianapolis, Ind.) was added per well. Luciferase activity was then quantified by measuring luminescence using a Wallac microbeta scintillation counter. • 5. The percent inhibition for each compound was calculated by quantifying the level of luciferase expression in cells infected in the presence of each compound as a percentage of that observed for cells infected in the absence of compound and subtracting such a determined value from 100. • 6. An EC50 provides a method for comparing the antiviral potency of the compounds of this invention. The effective concentration for fifty percent inhibition (EC50) was calculated with the Microsoft Excel Xlfit curve fitting software. For each compound, curves were generated from percent inhibition calculated at 10 different concentrations by using a four paramenter logistic model (model 205). Table 1 is the key for the data in Tables 2-4.
For orientation: A reporter such as luciferase makes a cellular process visible.

Structures are written as SMILES.

On to `O=C(C(=O)N1CCN(C(=O)c2ccccc2)CC1)c1c[nH]c2c(-c3cccnc3)ncnc12` [Example 25, 1-(4-Benzoylpiperazin-1-yl)-2-(4-(pyridin-3-yl)-5H -pyrrolo[3,2-d]pyrimidin-7-yl)ethane-1,2-dione], for which the EC50 (as a rule, the concentration giving half of the maximal effect) is less than 1 µM.
With `O=C(C(=O)N1CCN(C(=O)c2ccccc2)CC1)c1c[nH]c2c(-c3cncnc3)ncnc12` [Example 28, 1-(4-Benzoylpiperazin-1-yl)-2-(4-(pyrimidin-5-yl)-5H-pyrrolo[3,2-d]pyrimidin-7-yl)ethane-1,2-dione] the figure was less than 1 µM; with `O=C(C(=O)N1CCN(C(=O)c2ccccc2)CC1)c1c[nH]c2c(-n3ccnn3)ncnc12` [Example 21, 1-(4-(1H-1,2,3-Triazol-1-yl)-5H-pyrrolo[3,2-d]pyrimidin-7-yl)-2-(4-benzoylpiperazin-1-yl)ethane-1,2-dione], less than 1 µM.
Under `O=C(C(=O)N1CCN(C(=O)c2ccccc2)CC1)c1c[nH]c2c(-c3ccnnc3)ncnc12` [Example 29, 1-(4-Benzoylpiperazin-1-yl)-2-(4-(pyridazin-4-yl)-5H-pyrrolo[3,2-d]pyrimidin-7-yl)ethane-1,2-dione] stands less than 1 µM; under `O=C(C(=O)N1CCN(C(=O)c2ccccc2)CC1)c1c[nH]c2c(-c3ccncc3)ncnc12` [Example 26, 1-(4-Benzoylpiperazin-1-yl)-2-(4-(pyridin-4-yl)-5H -pyrrolo[3,2-d]pyrimidin-7-yl)ethane-1,2-dione], less than 1 µM.
In the case of `O=C(C(=O)N1CCN(C(=O)c2ccccc2)CC1)c1c[nH]c2c(-n3ccc(-c4cccc(C(F)(F)F)c4)n3)ncnc12` [Example 19, 1-(4-Benzoylpiperazin-1-yl)-2-(4-(3-(3-(trifluoromethyl)phenyl)-1H-pyrazol-1-yl)-5H-pyrrolo[3,2-d]pyrimidin-7-yl)ethane-1,2-dione], the EC50 was less than 1 µM.
With `O=C(C(=O)N1CCN(C(=O)c2ccccc2)CC1)c1c[nH]c2c(-c3ccccn3)ncnc12` [Example 24, 1-(4-Benzoylpiperazin-1-yl)-2-(4-(pyridin-2-yl)-5H -pyrrolo[3,2-d]pyrimidin-7-yl)ethane-1,2-dione] the figure was less than 1 µM; with `N#CC(=C1CCN(C(=O)C(=O)c2c[nH]c3c(-n4cccn4)ncnc23)CC1)c1ccccc1` [Example 42, 2-(1-(2-(4-(1H-Pyrazol-1-yl)-5H-pyrrolo[3,2-d]pyrimidin-7-yl)-2-oxoacetyl)piperidin-4-ylidene)-2-phenylacetonitrile], less than 1 µM; with `N#CC(C(=O)c1c[nH]c2c(Cl)ncnc12)N1CCN(C(=O)c2ccccc2)CC1` (stereo not drawn) [Example 1, 2-(4-Benzoyl-piperazin-1-yl)-3-(4-chloro-5H-pyrrolo [3,2-d]pyrimidin-7-yl)-3-oxo-propionitrile], less than 1 µM.
With `COc1ncnc2c(C(=O)C(=O)N3CCN(C(=O)c4ccccc4)CC3)c[nH]c12` [Example 5, 1-(4-Benzoyl-piperazin-1-yl)-2-(4-methoxy-5H-pyrrolo[3,2-d]pyrimidin-7-yl)-ethane-1,2-dione] the figure was less than 1 µM.
Under `O=C(C(=O)N1CCN(c2ncnc3ccccc23)CC1)c1c[nH]c2c(-n3cccn3)ncnc12` [Example 40, 1-(4-(1H-Pyrazol-1-yl)-5H-pyrrolo[3,2-d]pyrimidin-7-yl)-2-(4-(quinazolin-4-yl)piperazin-1-yl)ethane-1,2-dione] stands less than 1 µM; under `COc1ccccc1-c1ccn(-c2ncnc3c(C(=O)C(=O)N4CCN(C(=O)c5ccccc5)CC4)c[nH]c23)n1` [Example 18, 1-(4-Benzoylpiperazin-1-yl)-2-(4-(3-(2-methoxyphenyl)-1H-pyrazol-1-yl)-5H-pyrrolo[3,2-d]pyrimidin-7-yl)ethane-1,2-dione], less than 1 µM; under `O=C(C(=O)N1CCN(c2nccc3ccccc23)CC1)c1c[nH]c2c(Cl)ncnc12` [Example 30, 1-(4-Chloro-5H-pyrrolo[3,2-d]pyrimidin-7-yl)-2-(4-(isoquinolin-1-yl)piperazin-1-yl)ethane-1,2-dione], less than 1 µM.
Turning to `O=C(C(=O)N1CCN(C(=O)c2ccccc2)CC1)c1c[nH]c2c(-c3cnccn3)ncnc12` [Example 27, 1-(4-Benzoylpiperazin-1-yl)-2-(4-(pyrazin-2-yl)-5H -pyrrolo[3,2-d]pyrimidin-7-yl)ethane-1,2-dione], the EC50 is less than 1 µM.
For `O=C(O)c1ccn(-c2ncnc3c(C(=O)C(=O)N4CCN(C(=O)c5ccccc5)CC4)c[nH]c23)n1` [Example 9, 1-{7-[2-(4-Benzoyl-piperazin-1-yl)-2-oxo-acetyl]-5H-pyrrolo[3,2-d]pyrimidin-4-yl}-1H-pyrazole-3-carboxylic Acid], the EC50 is less than 1 µM.
Under `Cc1cnn(-c2ncnc3c(C(=O)C(=O)N4CCN(C(=O)c5ccccc5)CC4)c[nH]c23)c1` [Example 4, 1-(4-Benzoyl-piperazin-1-yl)-2-[4-(4-methyl-pyrazol-1-yl)-5H-pyrrolo[3,2-d]pyrimidin-7-yl]-ethane-1,2-dione] stands less than 1 µM; under `O=C(C(=O)N1CCN(c2nccc3ccccc23)CC1)c1c[nH]c2c(-c3cnccn3)ncnc12` [Example 31, 1-(4-(Isoquinolin-1-yl)piperazin-1-yl)-2-(4-(pyrazin-2-yl)-5H-pyrrolo[3,2-d]pyrimidin-7-yl)ethane-1,2-dione], less than 1 µM; under `O=C(C(=O)N1CCN(c2nccc3ccccc23)CC1)c1c[nH]c2c(-n3cccn3)ncnc12` [Example 32, 1-(4-(1H-Pyrazol-1-yl)-5H-pyrrolo[3,2-d]pyrimidin-7-yl)-2-(4-(isoquinolin-1-yl)piperazin-1-yl)ethane-1,2-dione], less than 1 µM.
On to `O=C(C(=O)N1CCN(C(=O)c2ccccc2)CC1)c1c[nH]c2c(-n3nccn3)ncnc12` [Example 8, 1-(4-(2H-1,2,3-Triazol-2-yl)-5H-pyrrolo[3,2-d]pyrimidin-7-yl)-2-(4-benzoylpiperazin-1-yl)ethane-1,2-dione], for which the EC50 was less than 1 µM.
As for `O=C(C(=O)N1CCN(C(=O)c2ccccc2)CC1)c1c[nH]c2c(-c3cc[nH]n3)ncnc12` [Example 22, 1-(4-(1H-Pyrazol-3-yl)-5H-pyrrolo[3,2-d]pyrimidin-7-yl)-2-(4-benzoylpiperazin-1-yl)ethane-1,2-dione], the EC50 is less than 1 µM.
Regarding `O=C(C(=O)N1CCN(C(=O)c2ccccc2)CC1)c1c[nH]c2c(-n3ccc(-c4ccc(F)cc4)n3)ncnc12` [Example 16, 1-(4-Benzoylpiperazin-1-yl)-2-(4-(3-(4-fluorophenyl)-1H-pyrazol-1-yl)-5H-pyrrolo[3,2-d]pyrimidin-7-yl)ethane-1,2-dione], the EC50 is less than 1 µM.
Take `CC(=O)c1ncnc2c(C(=O)C(=O)N3CCN(C(=O)c4ccccc4)CC3)c[nH]c12` [Example 11, 1-(4-Acetyl-5H-pyrrolo[3,2-d]pyrimidin-7-yl)-2-(4-benzoylpiperazin-1-yl)ethane-1,2-dione]: the EC50 is less than 1 µM.
With `O=C(C(=O)N1CCN(C(=O)c2ccccc2)CC1)c1c[nH]c2c(Cl)ncnc12` [Example 2, 1-(4-Benzoyl-piperazin-1-yl)-2-(4-chloro-5H-pyrrolo[3,2-d]pyrimidin-7-yl)-ethane-1,2-dione] the figure was less than 1 µM.
With `CN(C)C(=O)c1ccn(-c2ncnc3c(C(=O)C(=O)N4CCN(C(=O)c5ccccc5)CC4)c[nH]c23)n1` [Example 13, 1-(7-(2-(4-Benzoylpiperazin-1-yl)-2-oxoacetyl)-5H -pyrrolo[3,2-d]pyrimidin-4-yl)-N,N-dimethyl-1H-pyrazole-3-carboxamide] the figure was less than 1 µM; with `O=C(C(=O)N1CCN(C(=O)c2ccccc2)CC1)c1c[nH]c2c(-n3ccc(-c4ccccn4)n3)ncnc12` [Example 39, 1-(4-Benzoylpiperazin-1-yl)-2-(4-(3-(pyridin-2-yl) -1H-pyrazol-1-yl)-5H-pyrrolo[3,2-d]pyrimidin-7-yl)ethane-1,2-dione], less than 1 µM; with `N#CC(=C1CCN(C(=O)C(=O)c2c[nH]c3c(-n4cccn4)ncnc23)CC1)c1ccccn1` [Example 38, 2-(1-(2-(4-(1H-pyrazol-1-yl)-5H-pyrrolo[3,2-d]pyrimidin-7-yl)-2-oxoacetyl)piperidin-4-ylidene)-2-(pyridin-2-yl)acetonitrile], less than 1 µM.
Turning to `N#CC(=C1CCN(C(=O)C(=O)c2c[nH]c3c(-c4cncnc4)ncnc23)CC1)c1ccccc1` [Example 34, 2-(1-(2-Oxo-2-(4-(pyrimidin-5-yl)-5H-pyrrolo[3,2-d]pyrimidin-7-yl)acetyl)piperidin-4-ylidene)-2-phenylacetonitrile], the EC50 was less than 1 µM.

The values above are taken from patent US7902204B2 (priority 2003, dated 2011).
